# In patent publication US20050090498A1, “3-Quinolin-2(1h)-ylideneindolin-2-one derivative” (priority 2001, published 2005):
# pIC50: −log10 of the molar value.
# Test system: Human umbilical vein endothelial cells (HUVEC), VEGF-stimulated
# Assay: Test on the inhibition of VEGF-stimulated HUVEC growth ([3H]thymidine incorporation)
# Format: cell-based
# Details: human recombinant VEGF 10 ng/ml
# Description: Test method: (Cell culture) Human umbilical vein endothelial cells (HUVEC) were cultured using EGM-2 complete medium (Clonetics) which had been supplemented with additives (2% FBS, 0.4% FGF (fibroblast growth factor), 0.1% VEGF, 0.1% IGF-I (insulin like growth factor-I), 0.1% EGF (epidermal growth factor), 0.1% ascorbic acid, 0.1% GA-1000, 0.1% heparin and 0.04% hydrocortisone).
# (Evaluation of compounds) HUVEC (10,000 cells/well) were inoculated into EGM-2 complete medium in a gelatin-coated 96 well plate (mfd. by IWAKI) and cultured overnight. After washing with a physiological phosphate buffer, the medium was exchanged with a low serum medium (Medium 199/0.1% FBS) and the culturing was continued for 24 hours. Each of the compounds to be evaluated was prepared as a 10 mM DMSO solution and diluted with the low serum medium. This was added to each well to a final concentration of from 0.001 to 10 μM. After 2 hours of the compound treatment, human recombinant VEGF (R & D Systems) was added to a final concentration of 10 ng/ml. After 18 hours, [^3H]thymidine (Amersham Pharmacia) was added in 5 μCi/well portions. After 4 hours, the reaction was terminated by adding 0.2% SDS in 50 μl/well portions, and the product was recovered on GF/C Unifilter (Packard). After adding 25 μl of Microscinti 20 (Packard), the radioactivity incorporated into the DNA trapped on the filter was measured using TopCount (Packard). The IC50 of the inhibitory activity of each compound was calculated as the 50% inhibition concentration (IC50 value) of each compound to be tested, by defining the incorporated amount of [^3H]thymidine at the time of VEGF addition as 100%, and its incorporated amount at the time of no addition of VEGF as 0%.
row,Compound,pIC50
1,O=C1Nc2cc(Cl)ccc2C1=C1C=Cc2cc(OCCN3CCOCC3)ccc2N1 [Example 312],7.32
2,O=C(NCCN1CCOCC1)C1=CC(=C2C(=O)Nc3ccccc32)Nc2ccccc21 [Example 159],7.42
3,O=C1Nc2ccccc2C1=C1C=Cc2cc(Br)ccc2N1 [Example 56],6.96
4,O=C1Nc2ccc(Cl)cc2C1=C1C=Cc2ccccc2N1 [Example 283],7.08
5,O=C1Nc2ccccc2C1=C1C=Cc2cc(OC(=O)c3ccccc3)ccc2N1 [Example 36],6.80
6,CCOC(=O)c1cc2c(cc1C)C(=C1C=Cc3ccccc3N1)C(=O)N2 [Example 222],8.17
7,CC1=CC(=C2C(=O)Nc3ccccc32)Nc2ccccc21 [Example 38],7.42
8,O=C(CCc1ccc2c(c1)C=CC(=C1C(=O)Nc3ccccc31)N2)NOCC1CC1 [Example 144],7.03
9,O=C1Nc2cc(C(F)(F)F)ccc2C1=C1C=Cc2cc(OCCN3CCOCC3)ccc2N1 [Example 296],7.33
10,O=C1Nc2cc(F)c(F)cc2C1=C1C=Cc2cc(OCCN3CCOCC3)ccc2N1 [Example 341],7.70
11,O=C1Nc2ccc(Cl)cc2C1=C1C=Cc2cc(OCCN3CCOCC3)ccc2N1 [Example 293],7.32
12,CCOC(=O)CCC1=CC(=C2C(=O)Nc3ccccc32)Nc2ccccc21 [Example 39],7.49
13,CN1CCN(CCCc2ccc3c(c2)C=CC(=C2C(=O)Nc4ccccc42)N3)CC1 [Example 98],6.82
14,CN1CCC(N(C)CCOc2ccc3c(c2)C=CC(=C2C(=O)Nc4ccccc42)N3)CC1 [Example 87],7.00
15,CCOC(=O)c1ccc2c(c1)NC(=O)C2=C1C=Cc2cc(OCCN3CCOCC3)ccc2N1 [Example 294],7.92
16,O=C1Nc2ccccc2C1=C1C=Cc2cc(OCCCN3CCOCC3)ccc2N1 [Example 42],6.96
17,CCOC(=O)c1cc2c(cc1F)C(=C1C=Cc3ccccc3N1)C(=O)N2 [Example 204],7.66
18,O=C1Nc2cc(C(F)(F)F)ccc2C1=C1C=Cc2ccccc2N1 [Example 203],8.32
19,COc1ccc2c(c1)C=CC(=C1C(=O)Nc3ccccc31)N2 [Example 37],6.51
20,O=C(O)CCc1ccc2c(c1)C=CC(=C1C(=O)Nc3ccccc31)N2 [Example 66],6.46

row,Compound,pIC50
1,O=C(NCCCN1CCOCC1)C1=CC(=C2C(=O)Nc3ccccc32)Nc2ccccc21 [Example 163],7.37
2,O=C1Nc2ccccc2C1=C1C=Cc2c(cccc2OCCN2CCOCC2)N1 [Example 105],6.66
3,CCOC(=O)C1CCN(CCOc2ccc3c(c2)C=CC(=C2C(=O)Nc4ccccc42)N3)CC1 [Example 79],7.00
4,COc1cc2c(cc1CCCN1CCOCC1)NC(=C1C(=O)Nc3ccccc31)C=C2 [Example 77],6.80
5,O=C1Nc2ccccc2C1=C1C=Cc2cc(OCCN3CCS(=O)(=O)CC3)ccc2N1 [Example 80],7.00
6,CCOC(=O)c1ccc2c(c1)C(=C1C=Cc3ccccc3N1)C(=O)N2 [Example 239],6.51
7,O=C1Nc2ccccc2C1=C1C=Cc2cc(OCCN3CCCCC3=O)ccc2N1 [Example 59],7.06
8,CNC(=O)c1ccc2c(c1)C=CC(=C1C(=O)Nc3ccccc31)N2 [Example 149],7.14
9,CCOC(=O)CNC(=O)c1ccc2c(c1)C=CC(=C1C(=O)Nc3ccccc31)N2 [Example 146],7.12
10,O=C1Nc2ccccc2C1=C1C=Cc2cc(OCCN3CCN(c4ncccn4)CC3)ccc2N1 [Example 82],7.38
11,CCOC(=O)c1cc2c(cc1Cl)C(=C1C=Cc3cc(OCCN4CCOCC4)ccc3N1)C(=O)N2 [Example 298],7.30
12,O=C1Nc2ccccc2C1=C1C=Cc2ccc(OCCN3CCOCC3)cc2N1 [Example 102],6.39
13,CC(=O)Oc1ccc2c(c1)NC(=O)C2=C1C=Cc2ccccc2N1 [Example 265],6.74
14,N#Cc1ccc2c(c1)NC(=O)C2=C1C=Cc2cc(OCCN3CCOCC3)ccc2N1 [Example 295],7.48
15,O=C1Nc2ccccc2C1=C1C=Cc2cc(OCCN3CCC(n4c(=O)[nH]c5ccccc54)CC3)ccc2N1 [Example 81],7.17
16,CCOCc1ccc2c(c1)NC(=O)C2=C1C=Cc2ccccc2N1 [Example 259],7.15
17,CN1CCCN(CCOc2ccc3c(c2)C=CC(=C2C(=O)Nc4ccccc42)N3)CC1 [Example 83],6.96
18,N#Cc1ccc2c(c1)NC(=O)C2=C1C=Cc2ccccc2N1 [Example 191],7.15
19,CCN(CC)CCOc1ccc2c(c1)C(=C1C=Cc3ccccc3N1)C(=O)N2 [Example 286],6.12
20,"CCOC(=O)c1ccc2c(c1)NC(=O)C2=C1C=Cc2ccccc2N1 [Example 17, ethyl 3-[quinolin-2(1H)-ylidene]indolin-2-one-carboxylate]",7.92

row,Compound,pIC50
1,O=C1Nc2cc(F)ccc2C1=C1C=Cc2ccccc2N1 [Example 209],7.74
2,O=C1Nc2ccccc2C1=C1C=Cc2cc(C(=O)NCCN3CCOCC3)ccc2N1 [Example 145],7.51
3,CCN(CC)CCNC(=O)C1=CC(=C2C(=O)Nc3ccccc32)Nc2ccccc21 [Example 160],7.34
4,Cc1ccc2c(c1)C(=C1C=Cc3ccccc3N1)C(=O)N2 [Example 201],6.54
5,O=C1Nc2ccc(F)cc2C1=C1C=Cc2ccccc2N1 [Example 213],9.01
6,O=C1Nc2ccccc2C1=C1C=Cc2cc(OCCNC3CCC(O)CC3)ccc2N1 (stereo not drawn) [Example 57],6.14
7,O=C1Nc2ccccc2C1=C1C=C(CO)c2ccccc2N1 [Example 187],6.85
8,O=Cc1ccc2c(c1)NC(=O)C2=C1C=Cc2ccccc2N1 [Example 193],6.06
9,O=C1Nc2cc(Cl)ccc2C1=C1C=Cc2ccccc2N1 [Example 217],7.96
10,O=C1Nc2ccc([N+](=O)[O-])cc2C1=C1C=Cc2ccccc2N1 [Example 284],6.44
11,CCOC(=O)c1cc2c(cc1F)C(=C1C=Cc3cc(OCCN4CCOCC4)ccc3N1)C(=O)N2 [Example 299],7.57
12,COCCNCc1ccc2c(c1)C=CC(=C1C(=O)Nc3ccccc31)N2 [Example 112],7.00
13,CN(C)CCN(C)CCOc1ccc2c(c1)C=CC(=C1C(=O)Nc3ccccc31)N2 [Example 86],7.00
14,CCOC(=O)c1cc2c(cc1C)C(=C1C=Cc3cc(OCCN4CCOCC4)ccc3N1)C(=O)N2 [Example 301],8.12
15,O=C1Nc2ccccc2C1=C1C=Cc2cc(OCCN3CCN(CCO)CC3)ccc2N1 [Example 85],6.96
16,O=C1Nc2ccc(Br)cc2C1=C1C=Cc2ccccc2N1 [Example 285],7.15
17,COCCOc1ccc2c(c1)C=CC(=C1C(=O)Nc3ccccc31)N2 [Example 58],7.47
18,O=C1Nc2ccccc2C1=C1C=Cc2cc(OCCCCN3CCOCC3)ccc2N1 [Example 47],6.77

# Test system: Human umbilical vein endothelial cells (HUVEC), VEGF-stimulated
# Assay: as above
# Format: cell-based
# Details: human recombinant VEGF 10 ng/ml
# Remark: another data set of the same source
row,Compound,pIC50
1,CN(C)[C@H]1CCCC1Nc1ncc2c(n1)/C(=C1\C=Cc3ccccc3N1)C(=O)N2 (stereo partly drawn) [Example 354],6.85
2,"O=C(Nc1cccnc1)Nc1ccc2c(c1)C=CC(=C1C(=O)Nc3ccccc31)N2 [Example 16, 1-[2-(2-oxoindolin-3-ylidene)-1,2-dihydroquinolin-6-yl]-3-(pyridin-3-yl)urea]",6.96
3,"O=C(CN1CCOCC1)Nc1ccc2c(c1)C=CC(=C1C(=O)Nc3ccccc31)N2 [Example 9, 2-morpholin-4-yl-N-[2-(2-oxoindolin-3-ylidene)-1,2-dihydroquinolin-6-yl]acetamide]",6.70
4,"O=C1Nc2ccccc2C1=C1C=Cc2cc(OCCn3ccnn3)ccc2N1 [Example 1, 3-{6-[2-(1H-1,2,3-triazol-1-yl)ethoxy]quinolin-2(1H)-ylidene}indolin-2-one]",6.68
5,"O=C1Nc2cc(C(=O)O)ccc2C1=C1C=Cc2ccccc2N1 [Example 25, 2-oxo-3-quinolin-2(1H)-ylideneindoline-6-carboxylic acid]",6.42
6,"O=C1Nc2ccccc2C1=C1C=Cc2cc(OCC(=O)N3CCOCC3)ccc2N1 [Example 8, 3-[6-(2-morpholin-4-yl-2-oxoethoxy)quinolin-2(1H)-ylidene]indolin-2-one]",6.77
7,"CC(=O)c1ccc2c(c1)NC(=O)C2=C1C=Cc2ccccc2N1 [Example 21, 6-acetyl-3-quinolin-2(1H)-ylideneindolin-2-one]",6.66
8,O=C1Nc2cnc(Cl)nc2/C1=C1\C=Cc2ccccc2N1 [Example 361],7.62
9,"Nc1ccc2c(c1)C=CC(=C1C(=O)Nc3ccccc31)N2 [Example 10, 3-[6-aminoquinolin-2(1H)-ylidene]indolin-2-one]",6.00
10,"CN1CCC(COc2ccc3c(c2)C=CC(=C2C(=O)Nc4ccccc42)N3)CC1 [Example 15, 3-{6-[(1-methylpiperidin-4-yl)methoxy]quinolin-2(1H)-ylidene}indolin-2-one]",6.49
11,"O=C1Nc2ccccc2C1=C1C=Cc2cc(CO)ccc2N1 [Example 14, 3-(6-hydroxymethylquinolin-2(1H)-ylidene)indolin-2-one]",6.52
